Laboratory results as given in the NIST ThermoML archive (doi:10.1016/j.jct.2010.04.026).
“And” between values parts separate entries of the source, which are not always exact repeats. Identical values can stand only once. Numbers after ± are expanded uncertainties.

Settings: Crystal; for mass density: 295.1 K, 101.33 kPa, pellet size and mass; for vapor or sublimation pressure: Calculated from knudsen effusion weight loss

Nc1ccc2[nH]ncc2c1 [5-aminoindazole]
Settings	mass density [kg/m3]	vapor or sublimation pressure
–	1400 ± 30	–
358.12 K	–	8.43e-05 ± 4.2e-06 kPa and 8.3e-05 ± 4.2e-06 kPa
360.18 K	–	0.000101 ± 5.1e-06 kPa and 0.0001064 ± 5.3e-06 kPa and 0.000103 ± 5.2e-06 kPa
362.16 K	–	0.0001305 ± 6.5e-06 kPa and 0.0001265 ± 6.3e-06 kPa and 0.0001259 ± 6.3e-06 kPa
364.11 K	–	0.0001563 ± 7.8e-06 kPa and 0.0001589 ± 8e-06 kPa and 0.0001556 ± 7.8e-06 kPa
366.17 K	–	0.0001991 ± 1e-05 kPa and 0.0001966 ± 9.8e-06 kPa and 0.0001879 ± 9.4e-06 kPa
368.17 K	–	0.0002397 ± 1.2e-05 kPa and 0.0002332 ± 1.2e-05 kPa and 0.0002247 ± 1.1e-05 kPa
370.13 K	–	0.0002948 ± 1.5e-05 kPa and 0.0002986 ± 1.5e-05 kPa
372.18 K	–	0.0003483 ± 1.7e-05 kPa and 0.0003696 ± 1.8e-05 kPa and 0.0003499 ± 1.7e-05 kPa
374.15 K	–	0.0004435 ± 2.2e-05 kPa and 0.0004334 ± 2.2e-05 kPa and 0.0004198 ± 2.1e-05 kPa
376.13 K	–	0.0005419 ± 2.7e-05 kPa and 0.000534 ± 2.7e-05 kPa and 0.0005297 ± 2.7e-05 kPa
378.17 K	–	0.0006618 ± 3.3e-05 kPa and 0.000668 ± 3.3e-05 kPa and 0.0006232 ± 3.1e-05 kPa
380.16 K	–	0.0007639 ± 3.8e-05 kPa and 0.0007696 ± 3.9e-05 kPa and 0.0007519 ± 3.8e-05 kPa

Nc1ccc2cn[nH]c2c1 [6-aminoindazole]
Settings	mass density [kg/m3]	vapor or sublimation pressure
–	1450 ± 30	–
366.14 K	–	0.0001031 ± 5.2e-06 kPa and 0.0001023 ± 5.1e-06 kPa and 0.0001025 ± 5.1e-06 kPa
368.17 K	–	0.0001275 ± 6.4e-06 kPa and 0.0001257 ± 6.3e-06 kPa and 0.0001221 ± 6.1e-06 kPa
370.18 K	–	0.0001528 ± 7.7e-06 kPa and 0.0001513 ± 7.6e-06 kPa and 0.0001468 ± 7.4e-06 kPa
372.14 K	–	0.0001919 ± 9.6e-06 kPa and 0.0001878 ± 9.4e-06 kPa and 0.0001923 ± 9.6e-06 kPa
374.16 K	–	0.0002356 ± 1.2e-05 kPa and 0.000234 ± 1.2e-05 kPa and 0.0002228 ± 1.1e-05 kPa
376.17 K	–	0.0002875 ± 1.4e-05 kPa and 0.0002739 ± 1.4e-05 kPa
378.15 K	–	0.0003523 ± 1.8e-05 kPa and 0.0003592 ± 1.8e-05 kPa and 0.0003463 ± 1.7e-05 kPa
380.16 K	–	0.0004332 ± 2.2e-05 kPa and 0.000428 ± 2.1e-05 kPa and 0.0004138 ± 2.1e-05 kPa
382.17 K	–	0.0005244 ± 2.6e-05 kPa and 0.0005044 ± 2.5e-05 kPa and 0.0005114 ± 2.6e-05 kPa
384.15 K	–	0.0006281 ± 3.1e-05 kPa and 0.0006132 ± 3.1e-05 kPa and 0.0006304 ± 3.2e-05 kPa
386.16 K	–	0.0007813 ± 3.9e-05 kPa and 0.0007708 ± 3.9e-05 kPa and 0.0007396 ± 3.7e-05 kPa
388.17 K	–	0.0009109 ± 4.6e-05 kPa and 0.0008984 ± 4.5e-05 kPa and 0.0008878 ± 4.4e-05 kPa
